Our source for the absorption maximum values is the Deep4Chem optical property database.

A short description of the data set: solvent given as SMILES.

SMILES strings stand for the structures.

For the compound `Oc1cccc(/N=C/c2ccccc2Oc2ccccc2)c1`, the absorption maximum by setting is: (in C1CCCCC1) 322 nm; (in C1CCOC1) 327 nm; (in C1COCCO1) 325 nm; (in CC#N) 328 nm; (in CC(C)CO) 323 nm; (in CC(C)O) 324 nm. The absorption maximum is listed as 318 nm (in CCCCC); 320 nm (in CCCCCC); 329 nm (in CCCCCCCCO); 325 nm (in CCCCCCCO); 321 nm (in CCCCCCO); 331 nm (in CCCCO). Further, the absorption maximum (in CCCCOC(C)=O) is 326 nm; the absorption maximum (in CCCO) is 328 nm; the absorption maximum (in CCO) was found to be 327 nm; the absorption maximum (in CCOC(C)=O) came to 321 nm; the absorption maximum (in CCOCC) amounted to 327 nm; the absorption maximum (in CN(C)C=O) amounted to 329 nm. This compound also gave an absorption maximum (in CO) of 328 nm; an absorption maximum (in CS(C)=O) of 329 nm; an absorption maximum (in Cc1ccccc1) of 324 nm; an absorption maximum (in Cc1ccccc1C) of 327 nm; an absorption maximum (in ClC(Cl)Cl) of 328 nm; an absorption maximum (in ClCCl) of 325 nm. Further, the absorption maximum reads like this: (in N#Cc1ccccc1) 344 nm; (in OCCO) 328 nm; (in c1ccccc1) 328 nm.

Where the note is “in ClC(Cl)Cl”, `FC(F)(F)c1ccc2oc3nc4oc5ccc(N6c7ccccc7Oc7ccccc76)cc5c4cc3c2c1` gave an absorption maximum of 344 nm.

As to `CCCCCCCC(=O)Oc1ccc2c3cccc4c(OC(=O)CCCCCCC)ccc(c5cccc1c52)c43`, the absorption maximum by setting is: (in C1CCOC1) 445 nm; (in Cc1ccccc1) 448 nm; (in ClC(Cl)(Cl)Cl) 448 nm; (in ClC(Cl)Cl) 446 nm; (in ClCCl) 445 nm; (in c1ccncc1) 449 nm.

Turning to `CC(C)Oc1ccc(C#Cc2ccc3ccc(=O)oc3c2)cc1`, under “in CC#N”, the absorption maximum came out at 310 nm.

Under “in Cc1ccccc1”, `F[B-]1(F)Oc2ccccc2-c2nc(-c3ccccc3)c3cc(Cl)ccc3[n+]21` yielded an absorption maximum of 395 nm.

With `COc1cc2c3c4c(c5ccc(C(C)(C)C)cc5c5cc(C(C)(C)C)cc(c2c(OC)c1OC)c45)=[N+]1C3=Nc2c3c4cc(OC)c(OC)c(OC)c4c4cc(C(C)(C)C)cc5c6cc(C(C)(C)C)ccc6c(c3c54)n2[B-]1(F)F`, the absorption maximum (in Cc1ccccc1) was 826 nm.

`Cc1ccc(Nc2ccc(Nc3ccc(C)cc3)c3c2C(=O)c2ccccc2C3=O)cc1`: the absorption maximum is, setting by setting: (in C1CCCCC1) 639 nm; (in C1COCCO1) 638 nm; (in CC(C)=O) 638 nm; (in CCCCCCCCCCO) 644 nm; (in CCCCCCCO) 641 nm; (in CCCCCCO) 642 nm. The absorption maximum reads like this: (in CCCCO) 639 nm; (in CCO) 637 nm; (in CN(C)C=O) 643 nm; (in CO) 636 nm; (in CS(C)=O) 644 nm; (in ClC(Cl)(Cl)Cl) 642 nm. Further, the absorption maximum (in c1ccccc1) is recorded as 642 nm.

Compound `CC(C)[Si](C#Cc1c2cc3ccccc3cc2c(C#Cc2ccccc2)c2cc3ccccc3cc12)(C(C)C)C(C)C` had an absorption maximum (in ClCCl) of 652 nm.

`O=C1c2ccccc2-c2c(-c3ccc([N+](=O)[O-])cc3)c(-c3ccc([N+](=O)[O-])cc3)c(-c3ccccc3)c3cccc1c23`: the absorption maximum reads like this: (in CC#N) 396 nm; (in CO) 400 nm.

Take `COC(=O)C(NC(=O)OC(C)(C)C)c1ccc2oc(-c3cc(OC)c(OC)cc3OC)nc2c1` (stereo not drawn): the absorption maximum is listed as 327 nm (in CC1CCCCC1), 333 nm (in CC#N) and 335 nm (in CO).

On to `Cc1ccc2cc3c(=O)n(C)c(=O)n(C)c3nc2c1`, for which the absorption maximum was determined as 353 nm (in CC#N); 353 nm (in CC(C)O); 353 nm (in CCO); 352 nm (in CO); 355 nm (in ClC(Cl)Cl); 355 nm (in ClCCl).

For `c1ccc(-c2nnc(-c3ccc(-n4c5ccccc5c5ccccc54)cc3)o2)cc1`, for the setting “in Cc1ccccc1”, the absorption maximum came to 340 nm.

For the compound `Ic1ccc(C2=C3C=CC4=[N+]3[B-]3(Oc5ccccc54)Oc4ccccc4-c4ccc2n43)cc1` (stereo not drawn), the absorption maximum (in ClC(Cl)Cl) is 630 nm.

Regarding `F[B-]1(F)n2ccnc2-c2cccc[n+]21`, the absorption maximum by setting is: (in C1CCCCC1) 298 nm; (in C1CCOC1) 298 nm; (in C1COCCO1) 297 nm; (in CC#N) 295 nm; (in CCCCCC) 297 nm; (in CO) 293 nm. Besides, the absorption maximum (in ClC(Cl)Cl) came to 300 nm.

On to `O=Cc1cc(O)c(C=O)cc1O`, for which the absorption maximum (in C1CCOC1) stood at 414 nm; the absorption maximum (in C1COCCO1) is 414 nm; the absorption maximum (in CC#N) was found to be 413 nm; the absorption maximum (in CC(C)=O) is recorded as 413 nm; the absorption maximum (in CCCO) was 415 nm; the absorption maximum (in CCO) stood at 413 nm. For the same compound, the absorption maximum is, setting by setting: (in CN(C)C=O) 414 nm; (in CN(C)P(=O)(N(C)C)N(C)C) 427 nm; (in CNC=O) 377 nm; (in CO) 384 nm; (in CS(C)=O) 417 nm; (in NC=O) 356 nm.

Take `Cc1cc(-c2ccccc2)cc(C)[o+]1`: the absorption maximum (in CC#N) worked out at 326 nm and the absorption maximum (in ClCCl) is given as 343 nm.

For the compound `Oc1ccc2ccccc2c1/C=N/c1cc2nc3ccccc3nc2cc1/N=C/c1c(O)ccc2ccccc12`, the absorption maximum (in CC#N) worked out at 420 nm.

Under “in CC#N”, `COc1cc2cc(/C=C/c3ccc(/C=C/c4ccc(/C=C(\C#N)C(=O)O)cc4)cc3)c(=O)oc2cc1OC` registered an absorption maximum of 415 nm.

`Cc1ccc(-c2cc(/C=C/c3ccc(N(c4ccccc4)c4ccccc4)cc3)c(-c3ccc(C)cc3)cc2/C=C/c2ccc(N(c3ccccc3)c3ccccc3)cc2)cc1` displayed an absorption maximum (in ClCCl) of 410 nm.

With `CC1(C)c2ccccc2N(c2ccc(-c3ncc(C#N)cn3)cc2)c2ccccc21`, the absorption maximum (in Cc1ccccc1) is recorded as 396 nm.

`COc1ccc(C#Cc2c3cc4ccccc4cc3c(C#Cc3ccc(OC)cc3)c3cc4ccccc4cc23)cc1` gave an absorption maximum (in ClCCl) of 666 nm.

On to `CCCCC(CC)Cn1c2cc(C#N)ccc2c2ccc(C#N)cc21` (stereo not drawn), for which the absorption maximum (in ClCCl) was 387 nm.

Consider `COC(=O)C(Cc1ccc2oc(-c3ccc4c(c3)c3ccccc3n4-c3ccccc3)nc2c1)NC(=O)OC(C)(C)C` (stereo not drawn), for which the absorption maximum reads like this: (in C1CCCCC1) 326 nm; (in C1CCOC1) 327.29 nm; (in C1COCCO1) 327.3 nm; (in CC1CCCO1) 326.9 nm; (in CC1COC(=O)O1) 326 nm; (in CC#N) 325.9 nm. Further, the absorption maximum came to 325.9 nm (in CC(C)=O); 325.1 nm (in CC(C)CC(C)(C)C); 335.8 nm (in CC(C)CO); 327 nm (in CC(C)O); 327.4 nm (in CC(C)OC(C)C); 338 nm (in CC(O)CO). The absorption maximum is, setting by setting: (in CCC(C)CC) 324.4 nm; (in CCCCC) 324.5 nm; (in CCCCCC) 325.3 nm; (in CCCCCCCCC) 326 nm; (in CCCCCCCCCC) 326.2 nm; (in CCCCCCCO) 328.3 nm. Further, the absorption maximum came to 328.2 nm (in CCCCCCO); 327.3 nm (in CCCCCO); 327.4 nm (in CCCCO); 334.69 nm (in CCO); 325.6 nm (in CCOC(C)=O); 325.3 nm (in CCOCC). Also, the absorption maximum is recorded as 327.9 nm (in CN(C)C=O); 334.2 nm (in CO); 326.8 nm (in COCCOC); 332.6 nm (in CS(C)=O); 328.9 nm (in Cc1ccccc1); 329.1 nm (in Cc1ccccc1C). Besides, the absorption maximum by setting is: (in ClC(Cl)Cl) 329.7 nm; (in ClCCl) 328.8 nm; (in NC=O) 327.7 nm; (in OC1CCCCC1) 328.6 nm; (in OCCO) 338.9 nm; (in c1ccccc1) 328.8 nm.

In the case of `Cc1ccc(C2=Cc3ccc4ccccc4[n+]3[B-](F)(F)O2)cc1`, where the note is “in ClC(Cl)Cl”, the absorption maximum turned out to be 432 nm.

Where the note is “in CCO”, `CCN(CC)c1cc2oc3cc(N(CC)CC)c(F)cc3c(=O)c2cc1F` yielded an absorption maximum of 389 nm.

Compound `CCCCCCn1c(=O)c2c3oc4ccccc4oc3c3c(=O)n(CCCCCC)c(=O)c3c2c1=O` yielded an absorption maximum (in ClCCl) of 395 nm.

For the setting “in ClCCl”, `C1=C(c2ccccn2)[Si](c2ccccc2)(c2ccccc2)c2ccccc21` returned an absorption maximum of 339 nm.

Compound `c1ccc2c(c1)c1ccccc1n2-c1ccc(-c2ccc3nc(-c4ccc(-n5c6ccccc6c6ccccc65)cc4)nn3c2)cc1` gave an absorption maximum (in C1CCOC1) of 341 nm.

As to `CC(=O)c1ccc(/N=N/c2ccc(Nc3ccccc3)cc2)cc1`, the absorption maximum reads like this: (in C1CCOC1) 438 nm; (in CC#N) 432 nm; (in CC(=O)O) 544 nm; (in CN(C)C=O) 452 nm; (in CO) 443 nm; (in CS(C)=O) 459 nm. The absorption maximum was 429 nm (in Cc1ccccc1), 427 nm (in ClC(Cl)Cl) and 432 nm (in ClCCl).

With `CCCCCCN(CCCCCC)c1ccc(C#Cc2ccc(N(CCCCCC)CCCCCC)cc2)cc1`, the absorption maximum (in CO) is given as 380 nm and the absorption maximum (in ClCCl) is 387 nm.
